Assay results as given in US6531472B2, “Tetralone derivatives” (Hoffman-La Roche Inc., priority 2000, dated 2003).

test system: HDAC; assay: HDAC inhibition screening assay using an aminocoumarin derivative of an omega-acetylated lysine as substrate; type: biochemical; conditions: compound concentration 10 nM
Description: To measure the HDAC inhibitory properties of the compounds of the invention a screening assay was established using an aminocoumarin derivative of an omega-acetylated lysine as substrate for the enzyme. […] Using the protocol described therein, the inhibitory effect of the new compounds was determined at a concentration of 10 nM.

Row | SMILES | Inhibitory effect at 10 nM in % [%]
1 | CCOC(=O)C1(CCCCCC(=O)NO)CCc2c(OC)cccc2C1=O (stereo not drawn) [Example 9, 2-(5-hydroxycarbamoyl-pentyl)-5-methoxy-1-oxo-1,2,3,4-tetrahydro-naphtalene-2-carboxyclic acid ethyl ester] | 57
2 | COc1cccc2c1CCC(CCCCCC(=O)NO)C2=O (stereo not drawn) [Example 8] | 72
3 | CC1(CCCCCC(=O)NO)CCc2ccccc2C1=O (stereo not drawn) [Example 4, 6-(2-methyl-1-oxo-1,2,3,4-tetrahydro-naphthalen-2-yl)-hexanoic acid hydroxyamide] | 71
4 | COc1ccc2c(c1)CCC(CCCCC(=O)NO)C2=O (stereo not drawn) [Example 2, 5-(6-methoxy-1-oxo-1,2,3,4-tetrahydro-naphthalen-2-yl)-pentanoic acid hydroxyamide] | 64
5 | CC1(/C=C/CCCC(=O)NO)CCc2ccccc2C1=O (stereo not drawn) [Example 7, 6-(2-methyl-1-oxo-1,2,3,4-tetrahydro-naphthalen-2-yl)-hex-5-enoic acid hydroxyamide] | 60
6 | CCOC(=O)C1(CCCCCCCC(=O)NO)CCc2c(C)cc(C)cc2C1=O (stereo not drawn) [Example 10, 2-(7-Hydroxycarbamoyl-heptyl)-5,7-dimethyl-1-oxo-1,2,3,4-tetrahydro-naphtalene-2-carboxylic acid ethyl ester] | 55
